According to patent publication US9981972B2, “N-hydroxy bicyclic hydantoin carbamates as tools for identification of serine hydrolase targets” (ABIDE THERAPEUTICS, INC., priority 2014, dated 2018):

How the values were obtained:
Assay in all cases: Gel-based competitive ABPP in vitro, mouse brain membrane proteome
Format in all cases: biochemical
Conditions in all cases: mouse brain (mem) proteome
[1] = biological target: T1, LYPLA2 (Mus musculus, UniProt Q9WTL7)
T1 construct: a complex proteome endogenously expressing LYPLA1/2 was incubated with test compound; from tissue; host or cells: mouse brain, membrane fraction
Procedure, shortened: (§1)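 Mouse brain membrane proteome (1 mg/mL in DPBS) was treated with compound (0.1-100 μM) for 30 min at 37 °C, then labeled with FP-Rh (2 μM final, 30 min, 25 °C). Bands were resolved by SDS-PAGE and scanned in-gel, with inhibition taken from band optical density versus DMSO. Targets counted as active or anti-targets at ≥50% inhibition.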

[2] = biological target: T2, LYPLA1 (Mus musculus, UniProt P97823)
T2 construct: a complex proteome endogenously expressing LYPLA1/2 was incubated with test compound; from tissue; host or cells: mouse brain, membrane fraction
Procedure, shortened: as §1

[3] = biological target: T3, ABHD3 (Mus musculus, UniProt Q91ZH7)
T3 construct: from tissue; host or cells: mouse brain, membrane fraction
T3 sequence (Q91ZH7 1-411): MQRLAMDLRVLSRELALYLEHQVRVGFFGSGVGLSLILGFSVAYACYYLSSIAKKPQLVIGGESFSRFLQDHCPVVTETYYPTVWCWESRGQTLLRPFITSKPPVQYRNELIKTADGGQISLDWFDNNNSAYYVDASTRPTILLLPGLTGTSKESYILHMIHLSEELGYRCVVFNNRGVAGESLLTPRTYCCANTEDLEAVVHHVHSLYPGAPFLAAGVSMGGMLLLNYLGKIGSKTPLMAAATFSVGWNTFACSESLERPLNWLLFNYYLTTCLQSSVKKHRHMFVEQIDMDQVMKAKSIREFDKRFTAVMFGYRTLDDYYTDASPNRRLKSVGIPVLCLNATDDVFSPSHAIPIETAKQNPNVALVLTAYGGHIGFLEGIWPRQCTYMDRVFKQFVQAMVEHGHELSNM

[4] = biological target: T4, ABHD12 (Mus musculus, UniProt Q99LR1)
T4 construct: from tissue; host or cells: mouse brain, membrane fraction
T4 sequence (Q99LR1 1-398): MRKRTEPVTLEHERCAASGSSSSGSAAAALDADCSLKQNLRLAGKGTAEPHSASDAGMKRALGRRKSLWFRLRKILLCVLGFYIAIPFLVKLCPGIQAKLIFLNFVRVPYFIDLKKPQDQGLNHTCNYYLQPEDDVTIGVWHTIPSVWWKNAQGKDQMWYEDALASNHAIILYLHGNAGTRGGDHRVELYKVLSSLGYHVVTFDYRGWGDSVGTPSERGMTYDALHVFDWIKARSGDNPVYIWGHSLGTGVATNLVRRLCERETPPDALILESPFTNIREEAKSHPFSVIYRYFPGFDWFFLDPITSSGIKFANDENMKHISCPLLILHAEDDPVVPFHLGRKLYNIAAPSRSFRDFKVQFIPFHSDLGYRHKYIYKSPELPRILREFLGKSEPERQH

T1 sequence (Q9WTL7 whole entry): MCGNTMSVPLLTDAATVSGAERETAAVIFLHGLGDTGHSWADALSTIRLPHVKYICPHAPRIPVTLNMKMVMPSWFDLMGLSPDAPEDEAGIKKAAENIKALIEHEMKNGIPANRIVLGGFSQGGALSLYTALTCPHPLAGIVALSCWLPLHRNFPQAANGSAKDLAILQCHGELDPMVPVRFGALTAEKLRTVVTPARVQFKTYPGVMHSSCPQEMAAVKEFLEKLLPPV
T2 sequence (P97823 whole entry): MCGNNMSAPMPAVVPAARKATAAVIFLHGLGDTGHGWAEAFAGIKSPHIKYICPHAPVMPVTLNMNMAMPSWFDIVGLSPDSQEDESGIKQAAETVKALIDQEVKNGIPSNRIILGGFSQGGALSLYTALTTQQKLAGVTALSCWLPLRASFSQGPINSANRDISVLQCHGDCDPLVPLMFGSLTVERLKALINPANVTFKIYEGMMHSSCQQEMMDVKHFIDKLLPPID

LYPLA2 in vitro enzyme activity, % @ 10 μM ([1]; 10 μM) | LYPLA1 in vitro enzyme activity, % @ 10 μM ([2]; 10 μM) | ABHD3 in vitro enzyme activity, % @ 10 μM [3] | ABHD12 in vitro enzyme activity, % @ 10 μM [4] | LYPLA2 in vitro enzyme activity, % @ 1 μM ([1]; 1 μM) | LYPLA1 in vitro enzyme activity, % @ 1 μM ([2]; 1 μM) | SMILES
0% @ | 0% @ | 0% @ | 0% @ | – | – | C#CCOc1ccc(N2CCN(C(=O)ON3C(=O)[C@@H]4CN(Cc5ccc(Oc6ccccc6)cc5)CCN4C3=O)CC2)cc1 [Compound 44, (S)-1,3-dioxo-7-(4-phenoxybenzyl)-hexahydroimidazo[1,5-a]pyrazin-2(3H)-yl 4-(4-(prop-2-ynyloxy)phenyl)piperazine-1-carboxylate]
– | – | 0% @ | 0% @ | 75% @ | 75% @ | C#Cc1ccc(CCC2CCN(C(=O)ON3C(=O)[C@H]4CN(C(=O)N5CCOCC5)CCN4C3=O)CC2)cc1 [Compound 49, (R)-7-(morpholine-4-carbonyl)-1,3-dioxo-hexahydroimidazo[1,5-a]pyrazin-2(3H)-yl 4-(4-ethynylphenethyl)piperidine-1-carboxylate]
